Among the data in paper PMC2695807, “Plant Insecticide L-Canavanine Repels Drosophila via the Insect Orphan GPCR DmX” (PLoS Biology, 2009) are IC50 values, retold here.

In the experiment the target is T1, DmX receptor (DmXR) (Drosophila melanogaster, UniProt Q70GQ8).
T1 construct: gene mtt; HA-DmXR WT, transiently expressed in HEK 293 cells
T1 sequence (Q70GQ8 1-1073): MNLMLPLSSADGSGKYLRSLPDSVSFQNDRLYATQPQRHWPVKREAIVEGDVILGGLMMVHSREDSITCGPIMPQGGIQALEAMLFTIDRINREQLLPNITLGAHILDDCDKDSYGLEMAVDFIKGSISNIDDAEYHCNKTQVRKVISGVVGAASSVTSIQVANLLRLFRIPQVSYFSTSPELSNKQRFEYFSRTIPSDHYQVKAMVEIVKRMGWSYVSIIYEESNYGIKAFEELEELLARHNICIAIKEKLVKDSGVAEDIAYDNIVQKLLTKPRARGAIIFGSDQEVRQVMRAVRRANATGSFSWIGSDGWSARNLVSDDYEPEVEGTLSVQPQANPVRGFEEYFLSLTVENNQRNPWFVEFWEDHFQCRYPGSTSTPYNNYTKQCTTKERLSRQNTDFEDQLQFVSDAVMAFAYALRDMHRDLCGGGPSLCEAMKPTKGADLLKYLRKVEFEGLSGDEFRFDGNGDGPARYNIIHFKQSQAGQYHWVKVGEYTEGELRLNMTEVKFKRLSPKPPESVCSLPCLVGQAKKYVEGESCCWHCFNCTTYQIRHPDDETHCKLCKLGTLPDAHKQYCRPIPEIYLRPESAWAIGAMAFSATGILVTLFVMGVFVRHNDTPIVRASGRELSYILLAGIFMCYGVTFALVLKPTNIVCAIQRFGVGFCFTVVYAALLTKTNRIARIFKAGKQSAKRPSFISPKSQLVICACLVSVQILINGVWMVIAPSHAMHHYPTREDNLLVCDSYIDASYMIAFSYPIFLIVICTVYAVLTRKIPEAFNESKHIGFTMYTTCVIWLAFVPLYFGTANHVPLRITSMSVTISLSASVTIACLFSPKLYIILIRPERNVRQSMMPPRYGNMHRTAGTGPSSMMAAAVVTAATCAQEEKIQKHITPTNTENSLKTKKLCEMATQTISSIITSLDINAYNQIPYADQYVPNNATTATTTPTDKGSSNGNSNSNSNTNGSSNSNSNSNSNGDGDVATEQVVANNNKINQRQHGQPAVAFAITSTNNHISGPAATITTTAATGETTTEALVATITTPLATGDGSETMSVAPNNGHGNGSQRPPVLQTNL
Briefly: IP accumulation in HEK cells coexpressing DmXR and Gqi9; inhibition of activation by […] L-canavanine (antagonist). The experiment is classed as cell-based.

The IC50 is the concentration that gives 50% inhibition. `CN=C(N)NCCC[C@H](N)C(=O)O` [NMA, N-methyl-L-arginine]: the IC50 turned out to be 200 ± 200 µM.
